Common to all, as to format: in vivo
In test [1] the test system is Pseudoperonospora cubensis. Briefly: Controlling effect against cucumber downy mildew (spray on cucumber seedlings, 250 ppm). The settings on record: 250 ppm spray, cucumber seedling 1-leaf stage, 7th day after inoculation; untreated 60 to 80%. The procedure:
A solution of the compound in acetone was diluted with water to 250 ppm, and the solution was sprayed to the cucumber seedling (breed: Sagamihangbak, two per plastic pot having a diameter of 7.5 cm) at 1-leaf stage in an amount of 10 mL of the compound/pot. After air-drying, the pot was transferred to a moist chamber provided in the greenhouse, and inoculated by spray with a zoosporic suspension of Pseudoperonospora cubensis. On the 7th day after inoculation the infected area rate for the leaves was examined. Evaluation was carried out by the following criteria.
The infected area rate for untreated groups in the examination was 60 to 80%.

The subject of a further test is Phytophthora infestans. Conditions: 250 ppm spray, tomato seedling 4-leaf stage, 4th day after inoculation; untreated not less than 60%.
The next test deals with Plasmopara viticola. The test is described as follows: Controlling effect against grape downy mildew (leaf disk immersion, 250 ppm). Conditions: grape leaf disk immersed 3 hours, 10th day after inoculation, untreated 60 to 70%. The procedure: The developed leaf of grape seedling (breed: Cabernet Sauvignon) grown in 1/2000 a pot was cut and prepared a leaf disk having a diameter of 32 mm. A solution of the compound in acetone was diluted with water to 250 ppm, and the leaf disk was immersed for 3 hours. The disk was taken from the agent solution, subjected to air-drying, and then inoculated by spray with a zoosporangia suspension of Plasmopara viticola. The test disk was incubated at 18° C. for 12 hours in a light-dark light cycle. On the 10th day after inoculation the infected area rate for the leaf disk was examined. Evaluation was carried out by the following criteria. The infected area rate for the untreated groups in the examination was 60 to 70%.

Data on 16 compounds can be found in patent publication US20070244153A1 (priority 2004, published 2007).

Regarding `CCOC(=O)N[C@H](C(=O)N[C@H](CNC(=O)c1cc2ccccc2o1)C(C)C)C(C)C` [Compound No. 772, N-[2-methyl-1-(S)-[[(benzofuran-2-carbonyl)amino]methyl]propyl][3-methyl-2-(S)-[N-(ethyloxycarbonyl)amino]]butyramide], the “Effect: controlling effect against cucumber downy mildew (infected area rate)” value in test [1] is “A (the infected area rate of less than 5%)”. The “Effect: controlling effect against tomato late blight (infected area rate)” value with Phytophthora infestans is listed as “A (Infected area rate of less than 5%)”. In the test on Plasmopara viticola, the “Effect: controlling effect against grape downy mildew (infected area rate)” value is recorded as “A (the infected area rate of less than 5%)”.
As to `Cc1ccccc1C(=O)NC[C@@H](NC(=O)[C@@H](NC(=O)OC(C)C)C(C)C)C(C)C` [Compound No. 143, N-[2-methyl-1-(S)-[[(2-methylbenzoyl)amino]methyl]propyl]3-methyl-2-(S)-[(1-methylethyloxycarbonyl)amino]butyramide], the “Effect: controlling effect against cucumber downy mildew (infected area rate)” value in test [1] was “B (the infected area rate of 5% to less than 50%)”. Besides, in the test on Phytophthora infestans, the “Effect: controlling effect against tomato late blight (infected area rate)” value was “A (Infected area rate of less than 5%)”.
As to `CC(C)OC(=O)N[C@H](C(=O)N[C@H](CNC(=O)c1cc2ccccc2o1)C(C)C)C(C)C` [Compound No. 775, N-[2-methyl-1-(S)-[[(benzofuran-2-carbonyl)amino]methyl]propyl][3-methyl-2-(S)-[N-(1-methylethyloxycarbonyl)amino]]butyramide], the “Effect: controlling effect against cucumber downy mildew (infected area rate)” value in test [1] is “A (the infected area rate of less than 5%)”. The “Effect: controlling effect against tomato late blight (infected area rate)” value in the test with Phytophthora infestans was “A (Infected area rate of less than 5%)”. In addition, in the test on Plasmopara viticola, the “Effect: controlling effect against grape downy mildew (infected area rate)” value was “A (the infected area rate of less than 5%)”.
Take `CC(C)COC(=O)N[C@H](C(=O)N[C@H](CNC(=O)c1ccc(Cl)cc1)C(C)C)C(C)C` [Compound No. 205, N-[1-(S)-[[(4-chlorobenzoyl)amino]methyl]-2-methylpropyl]3-methyl-2-(S)-[(2-methylpropyloxycarbonyl)amino]butyramide]: the “Effect: controlling effect against cucumber downy mildew (infected area rate)” value in test [1] is listed as “A (the infected area rate of less than 5%)”. Also, the “Effect: controlling effect against tomato late blight (infected area rate)” value with Phytophthora infestans is reported as “A (Infected area rate of less than 5%)”. For the same compound, the “Effect: controlling effect against grape downy mildew (infected area rate)” value in the test on Plasmopara viticola was “B (the infected area rate of 5% to less than 50%)”.
`Cc1ccc(C(=O)NC[C@@H](NC(=O)[C@@H](NC(=O)OC(C)(C)C)c2ccccc2)C(C)C)cc1` [Compound No. 60, N-[2-methyl-1-(S)-[[(4-methylbenzoly)amino]methyl]propyl]2-(S)-[(1,1-dimethylethyloxycarbonyl)amino]-2-phenyl acetamide]: the “Effect: controlling effect against tomato late blight (infected area rate)” value in the test on Phytophthora infestans is given as “B (Infected area rate of 5% to less than 50%)”.
Consider `CCC[C@H](NC(=O)OC(C)(C)C)C(=O)N[C@H](CNC(=O)c1ccc(C)cc1)C(C)C` [compound 40, N-[2-methyl-1-(S)-[[(4-methylbenzoyl)amino]methyl]propyl]2-(S)-[(1,1-dimethylethyloxycarbonyl)amino]valeramide], for which, in test [1], the “Effect: controlling effect against cucumber downy mildew (infected area rate)” value is “A (the infected area rate of less than 5%)”. Moreover, the “Effect: controlling effect against tomato late blight (infected area rate)” value in the test with Phytophthora infestans was “A (Infected area rate of less than 5%)”. Moreover, in the test on Plasmopara viticola, the “Effect: controlling effect against grape downy mildew (infected area rate)” value is “A (the infected area rate of less than 5%)”.
As for `Cc1ccc(C(=O)N[C@@H](CNC(=O)[C@@H](NC(=O)OCc2ccccc2)C(C)C)C(C)C)cc1` [Compound No. 276, N-[3-methyl-2-(R)-[(4-methylbenzoyl)amino]butyl]2-(S)-[(benzyloxycarbonyl)amino]-3-methylbutyramide], in the test with Phytophthora infestans, the “Effect: controlling effect against tomato late blight (infected area rate)” value is on record as “B (Infected area rate of 5% to less than 50%)”.
Turning to `CC(CNC(=O)c1cc2ccccc2o1)NC(=O)[C@@H](NC(=O)OC(C)(C)C)C(C)C` (mixture of isomers) [Compound No. 652, N-[2-(RS)-[[(benzofuran-2-carbonyl)amino]-1-methyl]ethyl][3-methyl-2-(S)-[N-(1,1-dimethylethyloxycarbonyl)amino]]butyramide], in test [1], the “Effect: controlling effect against cucumber downy mildew (infected area rate)” value is “A (the infected area rate of less than 5%)”. The “Effect: controlling effect against tomato late blight (infected area rate)” value with Phytophthora infestans is “A (Infected area rate of less than 5%)”. The “Effect: controlling effect against grape downy mildew (infected area rate)” value in the test with Plasmopara viticola is “B (the infected area rate of 5% to less than 50%)”.
Consider `CC(C)OC(=O)N[C@H](C(=O)NC[C@@H](NC(=O)c1cc2ccccc2o1)C(C)C)C(C)C` [Compound No. 675, N-[[2-(S)-[(benzofuran-2-carbonyl)amino]-3-methyl]butyl][2-(S)-[(1-methylethyloxycarbonyl)amino]-3-methyl]butyramide], for which, in test [1], the “Effect: controlling effect against cucumber downy mildew (infected area rate)” value is given as “B (the infected area rate of 5% to less than 50%)”. Besides, the “Effect: controlling effect against tomato late blight (infected area rate)” value in the test with Phytophthora infestans is reported as “A (Infected area rate of less than 5%)”.
Turning to `CC(C)[C@H](NC(=O)OCc1ccccc1)C(=O)NC[C@@H](NC(=O)c1cc2ccccc2o1)C(C)C` [Compound No. 678, N-[3-methyl-2-(S)-[(benzofuran-2-carbonyl)amino]butyl]2-(S)-[(benzyloxycarbonyl)amino]-3-methylbutyramide], in test [1], the “Effect: controlling effect against cucumber downy mildew (infected area rate)” value is recorded as “A (the infected area rate of less than 5%)”. In the test on Phytophthora infestans, the “Effect: controlling effect against tomato late blight (infected area rate)” value is recorded as “B (Infected area rate of 5% to less than 50%)”. Moreover, the “Effect: controlling effect against grape downy mildew (infected area rate)” value with Plasmopara viticola is listed as “B (the infected area rate of 5% to less than 50%)”.
For the compound `CCOC(=O)N[C@H](C(=O)N[C@H](CNC(=O)c1cc2ccccc2o1)C(C)(C)C)C(C)C` [Compound No. 714, N-[1-(S)-[[(benzofuran-2-carbonyl)amino]methyl)-2,2-dimethylpropyl][3-methyl-2-(S)-[N-(ethyloxycarbonyl)amino]]butyramide], the “Effect: controlling effect against cucumber downy mildew (infected area rate)” value in test [1] is “A (the infected area rate of less than 5%)”. The “Effect: controlling effect against tomato late blight (infected area rate)” value in the test on Phytophthora infestans is “A (Infected area rate of less than 5%)”. Moreover, the “Effect: controlling effect against grape downy mildew (infected area rate)” value in the test with Plasmopara viticola is recorded as “A (the infected area rate of less than 5%)”.
`Cc1ccc(C(=O)N[C@H](CNC(=O)[C@@H](NC(=O)OCc2ccccc2)C(C)C)C(C)C)cc1` [Compound No. 281, N-[3-methyl-2-(S)-[(4-methylbenzoyl)amino]butyl]2-(S)-[(benzyloxycarbonyl)amino]-3-methylbutyramide]: the “Effect: controlling effect against cucumber downy mildew (infected area rate)” value in test [1] is recorded as “B (the infected area rate of 5% to less than 50%)”. Also, the “Effect: controlling effect against tomato late blight (infected area rate)” value with Phytophthora infestans was “B (Infected area rate of 5% to less than 50%)”.
In the same order, the values of `Cc1ccc(C(=O)NCC(NC(=O)[C@@H](NC(=O)OC(C)C)C(C)C)C(C)C)cc1` (mixture of isomers) [Compound No. 151, N-[2-methyl-1-(RS)-[[(4-methylbenzoyl)amino]methyl]propyl]3-methyl-2-(S)-[(1-methylethyloxycarbonyl)amino]butyramide] are “B (the infected area rate of 5% to less than 50%)” and “A (Infected area rate of less than 5%)”.
Take `CC(C)OC(=O)N[C@H](C(=O)N[C@H](CNC(=O)C1COc2ccccc2O1)C(C)C)C(C)C` (mixture of isomers) [Compound No. 899, N-[2-methyl-1-(S)-[[[(1,4-benzodioxane)-2-(RS)-carbonyl]amino]methyl]propyl][3-methyl-2-(S)-[N-(1-methylethyloxycarbonyl)amino]]butyramide]: in test [1], the “Effect: controlling effect against cucumber downy mildew (infected area rate)” value is “A (the infected area rate of less than 5%)”. For the same compound, in the test with Phytophthora infestans, the “Effect: controlling effect against tomato late blight (infected area rate)” value is on record as “A (Infected area rate of less than 5%)”. In the test on Plasmopara viticola, the “Effect: controlling effect against grape downy mildew (infected area rate)” value is recorded as “B (the infected area rate of 5% to less than 50%)”.
For `Cc1ccc(C(=O)N[C@@H](CNC(=O)[C@@H](NC(=O)OCC(C)C)C(C)C)C(C)C)cc1` [Compound No. 274, N-[3-methyl-2-(R)-[(4-methylbenzoyl)amino]butyl]3-methyl-2-(S)-[(2-methylpropyloxycarbonyl)amino]butyramide], the “Effect: controlling effect against cucumber downy mildew (infected area rate)” value in test [1] is recorded as “B (the infected area rate of 5% to less than 50%)”. In addition, the “Effect: controlling effect against tomato late blight (infected area rate)” value in the test on Phytophthora infestans is “A (Infected area rate of less than 5%)”.
In the same order, the values of `CC(C)[C@H](NC(=O)OCC1CCCO1)C(=O)N[C@H](CNC(=O)c1cc2ccccc2o1)C(C)C` (stereo partly drawn) [Compound No. 786, N-[1-(S)-[[(benzofuran-2-carbonyl)amino]methyl]-2-methylpropyl]3-methyl-2-(S)-[[(tetrahydrofuran-2-methyl)oxycarbonyl]amino]butyramide] are “A (the infected area rate of less than 5%)” and “A (Infected area rate of less than 5%)”.
